According to BigSolDB 2.1:

NC(=O)c1ccccc1N
Conditions | solubility (mole fraction)
in THF, 273.15 K | 0.226
in THF, 279.15 K | 0.237
in THF, 283.65 K | 0.245
in THF, 289.15 K | 0.255
in THF, 293.45 K | 0.263
in THF, 299.15 K | 0.275
in THF, 303.35 K | 0.284
in THF, 309.15 K | 0.296
in THF, 313.75 K | 0.31
in THF, 319.15 K | 0.326
in THF, 323.65 K | 0.339
in acetone, 273.15 K | 0.164
in acetone, 279.15 K | 0.181
in acetone, 284.15 K | 0.193
in acetone, 289.15 K | 0.208
in acetone, 293.35 K | 0.223
in acetone, 298.95 K | 0.243
in acetone, 303.35 K | 0.265
in acetone, 308.65 K | 0.292
in acetone, 313.15 K | 0.313
in acetone, 317.15 K | 0.341
in acetone, 324.15 K | 0.386
in acetonitrile, 273.15 K | 0.01
in acetonitrile, 279.15 K | 0.0139
in acetonitrile, 283.65 K | 0.0194
in acetonitrile, 289.15 K | 0.0267
in acetonitrile, 293.45 K | 0.0371
in acetonitrile, 299.15 K | 0.0531
in acetonitrile, 303.35 K | 0.066
in acetonitrile, 309.15 K | 0.0871
in acetonitrile, 313.75 K | 0.111
in acetonitrile, 319.15 K | 0.151
in acetonitrile, 323.65 K | 0.183
in ethanol, 273.15 K | 0.0302
in ethanol, 279.15 K | 0.0356
in ethanol, 284.15 K | 0.04
in ethanol, 289.15 K | 0.0477
in ethanol, 293.35 K | 0.0554
in ethanol, 298.95 K | 0.0648
in ethanol, 303.35 K | 0.0742
in ethanol, 313.15 K | 0.105
in ethanol, 317.15 K | 0.117
in ethanol, 324.15 K | 0.143
in ethyl acetate, 273.15 K | 0.053
in ethyl acetate, 279.15 K | 0.0608
in ethyl acetate, 283.65 K | 0.0684
in ethyl acetate, 289.15 K | 0.0778
in ethyl acetate, 293.45 K | 0.0856
in ethyl acetate, 299.15 K | 0.0977
in ethyl acetate, 303.35 K | 0.108
in ethyl acetate, 309.15 K | 0.123
in ethyl acetate, 313.75 K | 0.134
in ethyl acetate, 319.15 K | 0.154
in ethyl acetate, 323.65 K | 0.169
in isobutanol, 273.15 K | 0.0101
in isobutanol, 279.15 K | 0.013
in isobutanol, 284.15 K | 0.0153
in isobutanol, 289.15 K | 0.0176
in isobutanol, 293.35 K | 0.0211
in isobutanol, 298.95 K | 0.0261
in isobutanol, 303.35 K | 0.0301
in isobutanol, 308.65 K | 0.0369
in isobutanol, 313.15 K | 0.044
in isobutanol, 317.15 K | 0.0504
in isobutanol, 324.15 K | 0.0629
in isopentanol, 273.15 K | 0.0117
in isopentanol, 279.15 K | 0.014
in isopentanol, 283.65 K | 0.0152
in isopentanol, 289.15 K | 0.0181
in isopentanol, 293.25 K | 0.0217
in isopentanol, 298.95 K | 0.0273
in isopentanol, 303.25 K | 0.0312
in isopentanol, 308.15 K | 0.0391
in isopentanol, 313.15 K | 0.0458
in isopentanol, 318.15 K | 0.055
in isopentanol, 323.15 K | 0.0647
in isopropanol, 273.15 K | 0.0145
in isopropanol, 279.15 K | 0.0182
in isopropanol, 284.15 K | 0.0216
in isopropanol, 289.15 K | 0.0253
in isopropanol, 293.35 K | 0.0297
in isopropanol, 298.95 K | 0.0355
in isopropanol, 303.35 K | 0.042
in isopropanol, 308.65 K | 0.0505
in isopropanol, 313.15 K | 0.0593
in isopropanol, 317.15 K | 0.0676
in isopropanol, 324.15 K | 0.0844
in methanol, 273.15 K | 0.05
in methanol, 279.15 K | 0.0604
in methanol, 284.15 K | 0.0684
in methanol, 289.15 K | 0.0798
in methanol, 293.35 K | 0.0905
in methanol, 298.95 K | 0.106
in methanol, 303.35 K | 0.123
in methanol, 308.65 K | 0.148
in methanol, 313.15 K | 0.17
in methanol, 317.15 K | 0.19
in methanol, 324.15 K | 0.229
in methyl acetate, 273.15 K | 0.0644
in methyl acetate, 279.15 K | 0.0723
in methyl acetate, 283.65 K | 0.0797
in methyl acetate, 289.15 K | 0.0892
in methyl acetate, 293.25 K | 0.1
in methyl acetate, 298.95 K | 0.114
in methyl acetate, 303.25 K | 0.127
in methyl acetate, 308.15 K | 0.144
in methyl acetate, 313.15 K | 0.163
in methyl acetate, 318.15 K | 0.186
in methyl acetate, 323.15 K | 0.208
in n-butanol, 273.15 K | 0.0162
in n-butanol, 279.15 K | 0.0198
in n-butanol, 284.15 K | 0.0232
in n-butanol, 289.15 K | 0.0268
in n-butanol, 293.35 K | 0.0312
in n-butanol, 298.95 K | 0.0362
in n-butanol, 303.35 K | 0.0423
in n-butanol, 308.65 K | 0.0492
in n-butanol, 313.15 K | 0.0579
in n-butanol, 317.15 K | 0.065
in n-butanol, 324.15 K | 0.0788
in n-hexanol, 273.15 K | 0.0141
in n-hexanol, 279.15 K | 0.0166
in n-hexanol, 283.65 K | 0.0174
in n-hexanol, 289.15 K | 0.0216
in n-hexanol, 293.25 K | 0.0246
in n-hexanol, 298.95 K | 0.0297
in n-hexanol, 303.25 K | 0.034
in n-hexanol, 308.15 K | 0.0407
in n-hexanol, 313.15 K | 0.0468
in n-hexanol, 318.15 K | 0.0557
in n-hexanol, 323.15 K | 0.0641
in n-octanol, 273.15 K | 0.0143
in n-octanol, 279.15 K | 0.0159
in n-octanol, 283.65 K | 0.0176
in n-octanol, 289.15 K | 0.0206
in n-octanol, 293.25 K | 0.0235
in n-octanol, 298.95 K | 0.0275
in n-octanol, 303.25 K | 0.0316
in n-octanol, 308.15 K | 0.0377
in n-octanol, 313.15 K | 0.0434
in n-octanol, 318.15 K | 0.0505
in n-octanol, 323.15 K | 0.0582
in n-pentanol, 273.15 K | 0.0152
in n-pentanol, 279.15 K | 0.0183
in n-pentanol, 284.15 K | 0.0207
in n-pentanol, 289.15 K | 0.0243
in n-pentanol, 293.35 K | 0.0276
in n-pentanol, 298.95 K | 0.0326
in n-pentanol, 303.35 K | 0.0379
in n-pentanol, 308.65 K | 0.044
in n-pentanol, 313.15 K | 0.0514
in n-pentanol, 317.15 K | 0.0579
in n-pentanol, 324.15 K | 0.0703
in n-propanol, 273.15 K | 0.0193
in n-propanol, 279.15 K | 0.0232
in n-propanol, 284.15 K | 0.027
in n-propanol, 289.15 K | 0.0314
in n-propanol, 293.35 K | 0.0363
in n-propanol, 303.35 K | 0.0513
in n-propanol, 308.65 K | 0.0626
in n-propanol, 313.15 K | 0.0728
in n-propanol, 317.15 K | 0.0842
in n-propanol, 324.15 K | 0.105
